From patent publication US5382670A, “Platelet activating factor antagonists” (priority 1993, dated 1995)
Structures can show the parent of a compound that is named as a salt.

Target: PAF receptor (Oryctolagus cuniculus, UniProt G1TEI7)
Experiment: PAF receptor binding assay: inhibition of specific [3H]C18-PAF binding to rabbit platelet membranes
Details: 0.6 nM [3H]C18-PAF, 60 min, 22-23 °C, Ki from IC50 (Cheng and Prusoff), read-out: Ki (PAF Receptor Binding Activity)
Description: The ability of representative compounds of the present invention to inhibit PAF activity was determined in an in vitro test using the following method.
Citrated whole rabbit blood was obtained from Pel-Freez (Rogers, AR). Rabbit platelets were prepared by centrifugation and washing. The platelets were lysed by freeze-thawing and sonication; platelet membranes were prepared by centrifugation and washing. Final membrane preparations were stored frozen in 10 mM Tris/5 mM MgCl2 /2 mM EDTA (TME buffer, pH 7.0) with 0.25M sucrose added for membrane stabilization.
The standard PAF receptor binding assay contained 10 μg platelet membrane protein, 0.6 nM [^3 H]C18 -PAF (from Amersham or New England Nuclear; specific activity 120-180 Ci/mmol), with and without test compound, in "binding buffer" consisting of TME with 0.25% bovine serum albumin added (Sigma, RIA grade). The final volume of the assay was 100 μl. The assay was conducted in Millititre-GV™ (Millipore Corp.) filtration plates; incubation time was for 60 minutes at room temperature (22°-23° C.). "Specific binding" was operationally defined as the arithmetic difference between "total binding" of 0.6 nM [^3 H]C18 -PAF (in the abasence of added PAF) and "nonspecific binding" (in the presence of 1 μM PAF). After the prescribed incubation, platelet membranes were filtered under vacuum, and washed with 1 milliliter of "binding buffer". The filters were dried and removed. The bound radioactivity was quantitated with a Berthold TLC-Linear Analyzer model LB2842.
Dose-response curves of inhibition of specific [^3 H]C18 -PAF binding by test compounds were conducted in triplicate, with at least four doses covering the active range. Experiments were repeated at least once. IC50 values (concentration producing 50% inhibition) were determined by point-to-point evaluation. Ki values of inhibitory binding constants were calculated according to the method of Cheng and Prusoff [Biochem. Pharmacol. 22 (1973) 3099-3108] whereby [formula]
The values of Ki for representative compounds of the present invention appear in Table 1.

PAF receptor, sequence (G1TEI7 1-342): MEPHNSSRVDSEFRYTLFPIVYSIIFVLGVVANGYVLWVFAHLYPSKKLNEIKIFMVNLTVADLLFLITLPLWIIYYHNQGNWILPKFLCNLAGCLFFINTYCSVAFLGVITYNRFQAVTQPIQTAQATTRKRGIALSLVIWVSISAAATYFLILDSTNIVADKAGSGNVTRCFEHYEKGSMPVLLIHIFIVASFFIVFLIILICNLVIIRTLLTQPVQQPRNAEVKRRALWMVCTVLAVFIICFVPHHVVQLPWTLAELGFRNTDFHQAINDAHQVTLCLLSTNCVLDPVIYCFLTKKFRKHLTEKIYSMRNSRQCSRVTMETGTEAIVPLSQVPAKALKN

Ki [nM] | Compound
2 | CN(C)C(=O)n1cc(C(=O)C2CSC(c3cccnc3)N2)c2ccc(OCc3ccc(F)cc3)cc21 (stereo not shown) [Example 75, 1-dimethylcarbamoyl-3-[2-(3-pyridinyl)thiazolid-4-oyl]-6-(4-fluorophenylmethoxy)indole]
9 | Cc1c(C(=O)C2CSC(c3cccnc3)N2)c2ccccc2n1C(=O)N(C)C (stereo not shown) [Example 65, 1-dimethylcarbamoyl-2-methyl-3-[2-(3-pyridyl)thiazolid-4-oyl]indole]
25 | CN(C(=O)n1cc(C(=O)C2CSC(c3cccnc3)N2)c2ccccc21)c1ccccc1 (stereo not shown) [Example 49, 1-(N-methyl, N-phenyl)-3-[2-(3-pyridinyl)thiazolid-4-oyl]indole]
13 | O=C(c1c[nH]c2cccc(OCc3ccccc3)c12)C1CSC(c2cccnc2)N1 (stereo not shown) [Example 24, 3-[2-(3-pyridinyl)thiazolid-4-oyl-4-phenylmethoxyindole oxalate]
15 | O=C(c1c[nH]c2cc(-c3ccccc3)ccc12)C1CSC(c2cccnc2)N1 (stereo not shown) [Example 86, 3-[2-(3-pyridinyl)-thiazolid-4-oyl]-6-phenylindole]
150 | CN(C)C(=O)n1cc(C(=O)[C@@H]2CSC(c3cccnc3)N2C=O)c2ccccc21 (stereo partly drawn) [Example 96, trans-1-dimethylcarbamoyl-3-[2-(3-pyridinyl)-3-formylthiazolid-4-oyl]indole]
1 | CN(C)C(=O)n1cc(C(=O)C2CSC(c3cccnc3)N2)c2ccccc21 (stereo not shown) [Example 38]
4 | O=C(c1cn(C(=O)c2ccc(Cl)cc2)c2ccccc12)C1CSC(c2cccnc2)N1 (stereo not shown) [Example 44, 1-(4-chlorobenzoyl)-3-[2-(3-pyridinyl)thiazolid-4oyl]indole]
30 | O=C(c1cn(S(=O)(=O)c2ccccc2)c2ccccc12)C1CSC(c2cccnc2)N1 (stereo not shown) [Example 36, 1-phenylsulfonyl-3-[2-(3-pyridinyl)thiazolid-4-oyl]indole]
4 | CN(C)C(=O)n1cc(C(=O)C2CSC(c3cccnc3)N2)c2ccc(-c3ccccc3)cc21 (stereo not shown) [Example 87, 1-dimethylcarbamoyl-3-[2-(3-pyridinyl)thiazolid-4-oyl]-6-phenylindole]
2 | O=C(c1cn(C(=O)N2CCOCC2)c2ccccc12)C1CSC(c2cccnc2)N1 (stereo not shown) [Example 55, 1-(4-morpholinocarbonyl)-3-[2-(3-pyridinyl)thiazolid-4-oyl]indole]
10 | O=C(c1cn(C(=O)N2CCOCC2)c2cc(OCc3ccccc3)ccc12)C1CSC(c2cccnc2)N1 (stereo not shown) [Example 72, 1-(4-morpholinocarbonyl)-3-[2-(3-pyridinyl)thiazolid-4-oyl]-6-phenylmethoxyindole oxalate]
2700 | O=C(c1c[nH]c2ccccc12)C1CSC(c2cccnc2)N1C(=O)C(F)(F)F (single isomer, unassigned; isomer 1) [Example 102, 3-[2-(3-pyridinyl)-3-trifluoroacetylthiazolid-4-oyl]indole,isomer 1]
2200 | CC(=O)N1C(C(=O)c2cn(C(=O)N(C)C)c3cc(OCc4ccccc4)ccc23)CSC1c1cccnc1 (stereo not shown) [Example 101, oxalate]
1 | O=C(c1c[nH]c2c(OCc3ccccc3)cccc12)C1CSC(c2cccnc2)N1 (stereo not shown) [Example 50, 7-phenylmethoxy-3-[2-(3-pyridinyl)thiazolid-4-oyl]indole]
1300 | CN(C)C(=O)n1cc(C(=O)C2COC(c3cccnc3)N2C=O)c2ccccc21 (stereo not shown) [Example 113, 1-dimethylcarbamoyl-3-[2-(3-pyridinyl)-3,formyloxazolid-4-oyl]indole]
5000 | CC(=O)N1C(C(=O)c2cn(C(=O)N(C)C)c3cc(OCc4ccccc4)ccc23)CSC1c1cccnc1 (stereo not shown) [Example 99, 1-dimethylcarbamoyl-3-[2-(3-pyridinyl)-3-acetylthiazolid-4-oyl]-6-phenylmethoxyindole]
2 | O=C(c1c[nH]c2cc(OCc3ccccc3)ccc12)C1CSC(c2cccnc2)N1 (stereo not shown) [Example 34, 6-phenylmethoxy-3-[2-(3-pyridinyl)thiazolid-4-oyl]indole]
35 | CN(C)C(=O)n1cc(C(=O)C2CSC(c3cccnc3)N2C=O)c2ccc(OCc3ccccc3)cc21 (stereo not shown) [Example 93, 1-dimethylcarbamoyl-3-[2-(3-pyridinyl)-3-formylthiazolid-4-oyl]-6-phenylmethoxyindole]
270 | O=CN1C(C(=O)c2c[nH]c3ccccc23)CSC1c1cccnc1 (stereo not shown) [Example 90, 3-[2-(3-pyridinyl)-3-formylthiazolid-4-oyl]indole]

The next lines start with the compound.

Compound | Ki [nM]
CC(C)(C)OC(=O)n1cc(C(=O)C2CSC(c3cccnc3)N2)c2cccc(OCc3ccccc3)c21 (stereo not shown) [Example 53, 1-tert-butoxycarbonyl-7-phenylmethoxy-3-[2-(3-pyridinyl)thiazolid-4-oyl]indole] | 1
Cc1c(C(=O)C2CSC(c3cccnc3)N2)c2ccccc2n1C (stereo not shown) [Example 21, 1.2-dimethyl-3-[2-(3-pyridinyl)thiazolid-4-oyl]indole oxalate] | 105
CC(C)(C)OC(=O)n1cc(C(O)C2CSC(c3cccnc3)N2)c2ccccc21 (stereo not shown) [Example 114, [2-(3-pyridinyl)thiazolid-4-yl](1-tert-butoxycarbonylindol-3-yl)methanol] | 43
O=C(C1CSC(c2cccnc2)N1)n1ccc2c(Cl)cccc21 (stereo not shown) [Example 5, 1-[2-(3-pyridinyl)thiazolid-4-oyl]-4-chloroindole dihydrochloride] | 33
CC(=O)N1C(C(=O)c2cn(C(=O)OC(C)(C)C)c3ccccc23)CSC1c1cccnc1 (stereo not shown) [Example 57, 1-tert-butoxycarbonyl-3-[2-(3-pyridinyl)-3-acetylthiazolid-4-oyl]indole] | 10
Cc1ccc2c(C(=O)C3CSC(c4cccnc4)N3)cn(C(=O)OC(C)(C)C)c2c1 (stereo not shown) [Example 81, 1-tert-butoxycarbonyl-3-[2-(3-pyridinyl)thiazolid-4-oyl]-6-methylindole oxalate] | 2
CC(C)(C)OC(=O)n1cc(C(=O)[C@@H]2CS[C@H](c3cccnc3)S2)c2ccccc21 (relative stereo) [Example 29, cis-1-tert-butoxycarbonyl-3-[2-(3-pyridinyl)dithiolan-4-oyl]indole hydrochloride] | 180
CC(C)(C)OC(=O)n1cc(C(=O)C2CSC(c3cccnc3)N2C(N)=O)c2ccccc21 (stereo not shown) [Example 58, 1-tert-butoxycarbonyl-3-[2-(3-pyridinyl)-3-carbamoylthiazolid-4-oyl]indole] | 540
1-ethoxycarbonyl-3-[2-(3-pyridinyl)thiazolid-4-oyl]indole oxalate [Example 41] | 4

Same assay, conditions: Ki (PAF Receptor Binding Activity), 0.6 nM [3H]C18-PAF, 60 min, 22-23 °C, Ki from IC50 (Cheng and Prusoff)

Compound | Ki [nM]
O=C(O)Cn1cc(C(=O)C2CSC(c3cccnc3)N2)c2ccccc21 (stereo not shown) [Example 120, 1-carboxymethyl-3-[2-(3-pyridinyl)thiazolid-4-oyl]indole] | 19
COc1ccc2c(C(=O)C3CSC(c4cccnc4)N3)c[nH]c2c1 (stereo not shown) [Example 82, 3-[2-(3-pyridinyl)thiazolid-4-oyl]-6-methoxyindole] | 9
O=C(c1cc2ccccc2[nH]1)C1CSC(c2cccnc2)N1 (stereo not shown) [Example 115, 2-[2-(3-pyridinyl)thiazolid-4-oyl]indole] | 155
Cc1cccc2c(C(=O)C3CSC(c4cccnc4)N3)c[nH]c12 (stereo not shown) [Example 25, 3-(2-(3-pyridinyl)thiazolid-4-oyl)-7-methylindole oxalate] | 5
COC(=O)c1ccc2c(C(=O)C3CSC(c4cccnc4)N3)c[nH]c2c1 (stereo not shown) [Example 122, 3-[2-(3-pyridinyl)thiazolid-4-oyl]-6-carbomethoxyindole] | 400
O=C(C1CSC(c2cccnc2)N1)n1ccc2ccc(F)cc21 (stereo not shown) [Example 14, 1-[2-(3-pyridinyl)thiazolid-4-oyl]-6-fluoroindole] | 67
CCCn1cc(C(=O)C2CSC(c3cccnc3)N2)c2ccccc21 (stereo not shown) [Example 61, 1-propyl-3-[2-(3-pyridinyl)thiazolid-4-oyl]indole] | 8
CN(C)C(=O)Cn1cc(C(=O)C2CSC(c3cccnc3)N2)c2ccccc21 (stereo not shown) [Example 116, 1-(N,N-dimethylcarbamoylmethyl)-3-[2-(3-pyridinyl)thiazolid-4-oyl]indole] | 7
COC(=O)CCn1cc(C(=O)C2CSC(c3cccnc3)N2)c2ccccc21 (stereo not shown) [Example 118, 1-carbomethoxyethyl-3-[2-(3-pyridinyl)thiazolid-4-oyl]indole] | 5
Cc1ccc2c(c1)cc(C)n2C(=O)C1CSC(c2cccnc2)N1 (stereo not shown) [Example 4, 1-[2-(3-pyridinyl)thiazolid-4-oyl]-2,5-dimethylindole] | 46

Same assay, conditions: read-out: Ki (PAF Receptor Binding Activity), 0.6 nM [3H]C18-PAF, 60 min, 22-23 °C, Ki from IC50 (Cheng and Prusoff)

Compound | Ki [nM]
NC(=O)CCn1cc(C(=O)C2CSC(c3cccnc3)N2)c2ccccc21 (stereo not shown) [Example 121] | 6
